Measurements from ChEMBL document CHEMBL3856187, “Cyclin Dependent Kinase 9 Inhibitors for Cancer Therapy” (J Med Chem, 2016).

How the values were obtained:
[1] = molecular target: Cyclin-dependent kinase 4/G1/S-specific cyclin-E1 (Homo sapiens, UniProt P11802); test: Inhibition of CDK4/cyclin E (unknown origin); type: protein-complex assay
CDK2/Cyclin A2 [2] = molecular target: T1, CDK2/Cyclin A2 (Homo sapiens, UniProt P24941); test: Inhibition of CDK2/cyclin A (unknown origin); type: protein-complex assay
[3] = molecular target: Cyclin-dependent kinase 1/cyclin B1 (Homo sapiens, UniProt P06493); type: protein-complex assay
Cyclin-dependent kinase 1/cyclin B1, sequence (P06493 whole entry): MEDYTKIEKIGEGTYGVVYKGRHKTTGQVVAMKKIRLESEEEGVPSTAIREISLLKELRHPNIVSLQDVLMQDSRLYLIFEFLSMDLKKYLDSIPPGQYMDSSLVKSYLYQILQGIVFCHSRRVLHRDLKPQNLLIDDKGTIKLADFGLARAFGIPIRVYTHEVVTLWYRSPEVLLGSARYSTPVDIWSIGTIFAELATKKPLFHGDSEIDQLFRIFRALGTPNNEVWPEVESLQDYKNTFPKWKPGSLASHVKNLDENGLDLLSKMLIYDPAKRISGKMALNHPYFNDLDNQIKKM
Cyclin-dependent kinase 1/cyclin B1, sequence (P14635 whole entry, further chain): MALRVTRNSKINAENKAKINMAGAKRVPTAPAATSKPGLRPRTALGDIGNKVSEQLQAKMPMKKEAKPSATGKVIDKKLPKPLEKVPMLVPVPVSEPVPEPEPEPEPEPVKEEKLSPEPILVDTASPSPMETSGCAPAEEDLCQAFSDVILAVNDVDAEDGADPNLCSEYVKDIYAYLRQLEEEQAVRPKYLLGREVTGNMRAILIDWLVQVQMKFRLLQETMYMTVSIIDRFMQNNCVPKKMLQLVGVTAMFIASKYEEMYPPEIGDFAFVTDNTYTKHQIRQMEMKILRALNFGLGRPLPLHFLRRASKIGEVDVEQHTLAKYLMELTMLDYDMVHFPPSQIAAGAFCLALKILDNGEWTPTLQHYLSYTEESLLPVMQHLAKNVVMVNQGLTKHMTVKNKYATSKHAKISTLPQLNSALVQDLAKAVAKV
Description: Inhibition of CDK1/cyclin B (unknown origin)

[4] = molecular target: Cyclin-dependent kinase 7/ cyclin H (Homo sapiens, UniProt P50613); test: Inhibition of CDK7/cyclin H (unknown origin); type: protein-complex assay
Cyclin-dependent kinase 7/ cyclin H, sequence (P51946 whole entry): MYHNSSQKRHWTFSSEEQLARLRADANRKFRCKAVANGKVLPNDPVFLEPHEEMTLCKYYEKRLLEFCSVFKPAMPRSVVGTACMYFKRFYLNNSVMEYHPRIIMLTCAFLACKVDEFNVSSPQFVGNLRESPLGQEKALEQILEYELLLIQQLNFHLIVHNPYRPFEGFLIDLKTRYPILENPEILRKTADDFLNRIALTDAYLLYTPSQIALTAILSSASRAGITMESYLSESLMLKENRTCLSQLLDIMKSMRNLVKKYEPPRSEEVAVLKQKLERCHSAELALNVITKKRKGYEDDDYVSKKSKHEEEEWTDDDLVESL
Cyclin-dependent kinase 7/ cyclin H, sequence (P50613 whole entry): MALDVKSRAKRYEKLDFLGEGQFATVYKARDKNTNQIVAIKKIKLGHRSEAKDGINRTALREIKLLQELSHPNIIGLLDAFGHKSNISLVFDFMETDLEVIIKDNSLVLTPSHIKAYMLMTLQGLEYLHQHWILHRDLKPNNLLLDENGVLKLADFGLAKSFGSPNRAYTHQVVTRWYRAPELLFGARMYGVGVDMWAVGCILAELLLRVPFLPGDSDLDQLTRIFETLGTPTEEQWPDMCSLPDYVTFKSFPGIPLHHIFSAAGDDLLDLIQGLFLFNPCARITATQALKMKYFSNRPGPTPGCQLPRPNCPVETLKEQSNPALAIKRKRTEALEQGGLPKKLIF

[5] = molecular target: Cyclin-dependent kinase 5/CDK5 activator 1 (Homo sapiens, UniProt Q00535); test: Inhibition of CDK5/p25 (unknown origin); type: protein-complex assay
Cyclin-dependent kinase 5/CDK5 activator 1, sequence (Q00535 whole entry): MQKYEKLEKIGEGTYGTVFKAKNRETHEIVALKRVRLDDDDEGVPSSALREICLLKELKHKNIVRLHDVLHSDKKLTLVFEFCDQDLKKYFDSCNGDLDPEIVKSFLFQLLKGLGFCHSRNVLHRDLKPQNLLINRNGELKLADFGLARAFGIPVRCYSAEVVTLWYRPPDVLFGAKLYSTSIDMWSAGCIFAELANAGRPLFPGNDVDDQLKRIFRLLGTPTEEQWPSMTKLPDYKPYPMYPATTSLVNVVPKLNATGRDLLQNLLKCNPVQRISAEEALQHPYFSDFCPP
Cyclin-dependent kinase 5/CDK5 activator 1, sequence (Q15078 whole entry, further chain): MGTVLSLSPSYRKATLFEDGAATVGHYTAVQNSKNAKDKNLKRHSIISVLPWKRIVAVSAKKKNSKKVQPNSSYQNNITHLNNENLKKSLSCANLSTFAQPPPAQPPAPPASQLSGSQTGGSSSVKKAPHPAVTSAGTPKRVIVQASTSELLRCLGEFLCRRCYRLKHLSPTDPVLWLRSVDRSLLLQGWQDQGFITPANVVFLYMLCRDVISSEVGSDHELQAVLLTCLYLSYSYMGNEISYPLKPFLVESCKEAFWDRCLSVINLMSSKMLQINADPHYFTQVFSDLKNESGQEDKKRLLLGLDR

[6] = Cytotoxicity against human HeLa cells assessed as decrease in cell viability after 72 hrs by MTT assay; type: toxicity, cell-based
Homo sapiens = test: Anticancer activity in human AML patient assessed as improvement in remission rate at 50 mg/m2, iv for 1 to 3 days followed by cytarabine dose at 667 mg/m2/day as 72 hrs continuous infusion for 6 to 8 days and mitoxantrone at 40 mg/m2 administered on day 9; type: functional
[7] = molecular target: Cyclin-dependent kinase 2/cyclin E1 (Homo sapiens, UniProt P24941); test: Inhibition of human CDK2/cyclin E expressed in baculovirus infected Sf9 insect cells using retinoblastoma (792 to 928 residues) as substrate after 30 mins by gamma32P-ATP based scintillation counting analysis
[8] = molecular target: Cyclin-dependent kinase 4/cyclin D1 (Homo sapiens, UniProt P11802); test: Inhibition of human N-terminal GST-tagged CDK4/cyclin D1 expressed in baculovirus infected Sf9 insect cells using retinoblastoma (792 to 928 residues) as substrate after 30 mins by gamma32P-ATP based scintillation counting analysis
Cyclin-dependent kinase 4/cyclin D1, sequence (P11802 whole entry, the tested form may be a part): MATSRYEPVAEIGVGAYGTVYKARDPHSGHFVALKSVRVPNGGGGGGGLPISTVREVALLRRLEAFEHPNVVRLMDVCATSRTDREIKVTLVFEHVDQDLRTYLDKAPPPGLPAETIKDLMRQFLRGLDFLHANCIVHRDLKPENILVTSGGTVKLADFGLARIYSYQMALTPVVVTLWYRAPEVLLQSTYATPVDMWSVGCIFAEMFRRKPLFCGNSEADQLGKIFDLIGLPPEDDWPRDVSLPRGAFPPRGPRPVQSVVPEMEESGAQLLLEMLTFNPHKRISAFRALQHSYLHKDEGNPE
Cyclin-dependent kinase 4/cyclin D1, sequence (P24385 whole entry, further chain, the tested form may be a part): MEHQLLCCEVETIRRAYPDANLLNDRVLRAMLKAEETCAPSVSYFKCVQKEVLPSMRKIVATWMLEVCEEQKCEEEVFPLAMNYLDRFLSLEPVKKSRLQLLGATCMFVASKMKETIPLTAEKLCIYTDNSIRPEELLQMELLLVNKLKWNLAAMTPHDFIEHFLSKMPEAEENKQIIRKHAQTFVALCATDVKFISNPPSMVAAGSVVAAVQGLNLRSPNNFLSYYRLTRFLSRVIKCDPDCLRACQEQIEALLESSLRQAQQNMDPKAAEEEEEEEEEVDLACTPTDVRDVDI

[9] = Inhibition of CDK6/cyclin D (unknown origin); design: species or system Homo sapiens
CDK2/Cyclin A2 [10] = molecular target: T1, CDK2/Cyclin A2; test: Inhibition of recombinant human N-terminal GST-tagged CDK2/cyclin A expressed in baculovirus expression system using retinoblastoma (792 to 928 residues) as substrate after 30 mins by gamma32P-ATP based scintillation counting analysis
CDK7/Cyclin H/MNAT1 = CDK7/Cyclin H/MNAT1 (Homo sapiens, UniProt P50613); test: Inhibition of CDK7/cyclin H/MAT1 (unknown origin); type: protein-complex assay
CDK7/Cyclin H/MNAT1, sequence (P51946 whole entry): as the sequence (P51946 whole entry) above
CDK7/Cyclin H/MNAT1, sequence (P50613 whole entry): as the sequence (P50613 whole entry) above
CDK7/Cyclin H/MNAT1, sequence (P51948 whole entry, further chain): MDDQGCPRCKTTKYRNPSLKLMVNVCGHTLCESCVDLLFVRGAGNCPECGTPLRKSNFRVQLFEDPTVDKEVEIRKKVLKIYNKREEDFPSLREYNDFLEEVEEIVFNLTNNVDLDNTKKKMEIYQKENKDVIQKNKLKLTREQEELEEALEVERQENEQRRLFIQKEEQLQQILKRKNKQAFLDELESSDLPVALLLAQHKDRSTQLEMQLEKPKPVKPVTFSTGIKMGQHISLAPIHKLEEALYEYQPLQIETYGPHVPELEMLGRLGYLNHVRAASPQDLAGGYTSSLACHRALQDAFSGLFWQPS

Cyclin-dependent kinase 4/G1/S-specific cyclin-E1, sequence (P11802 whole entry): as the sequence (P11802 whole entry, the tested form may be a part) above
Cyclin-dependent kinase 4/G1/S-specific cyclin-E1, sequence (P24864 whole entry, further chain): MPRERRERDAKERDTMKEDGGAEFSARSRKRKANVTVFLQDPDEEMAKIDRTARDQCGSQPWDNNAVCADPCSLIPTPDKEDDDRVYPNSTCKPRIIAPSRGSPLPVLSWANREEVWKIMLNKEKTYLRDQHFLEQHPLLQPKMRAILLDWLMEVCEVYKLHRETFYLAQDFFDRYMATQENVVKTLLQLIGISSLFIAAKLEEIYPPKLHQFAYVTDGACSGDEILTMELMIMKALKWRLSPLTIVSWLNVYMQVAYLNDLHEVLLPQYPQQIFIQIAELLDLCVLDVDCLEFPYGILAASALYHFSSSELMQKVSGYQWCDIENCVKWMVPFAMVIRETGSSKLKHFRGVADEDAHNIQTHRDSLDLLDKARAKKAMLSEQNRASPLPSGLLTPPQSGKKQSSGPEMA

Compound	IC50 [1]	IC50 (CDK2/Cyclin A2 [2])	IC50 [3]	IC50 [4]	IC50 [5]	CC50 at 72 h [6]	Activity (Homo sapiens)	IC50 [7]	IC50 [8]	IC50 [9]	IC50 (CDK2/Cyclin A2 [10])	IC50 (CDK7/Cyclin H/MNAT1)
CC[C@H](Nc1nc(NCc2cnc(C)cc2C)c2ncn(C(C)C)c2n1)[C@@H](C)O [CYC-065]	232 nM	5 nM	578 nM	193 nM	21 nM	–	–	–	–	–	–	–
CN1CC[C@H](c2c(O)cc(O)c3c(=O)cc(-c4ccccc4Cl)oc23)[C@H](O)C1 [ALVOCIDIB]	–	–	–	–	–	120 nM	67 - 80%	–	–	–	–	–
CN1CC[C@@H](c2c(O)cc(O)c3c(=O)cc(-c4ccccc4Cl)oc23)[C@@H]1CO	–	–	79 nM	–	–	–	–	2540 nM	63 nM	396 nM	224 nM	2870 nM
